# Experimental data taken from patent US20260209247A1, “Substituted Tricyclic Compounds” (Lupin Limited, priority 2019, published 2026).
# How the values were obtained:
# [1] = test system: pERK after EGF stimulation in DLD1 cells; assay: ERK phosphorylation assay (alphascreen pERK); type: cell-based; details: Homo sapiens, DLD-1, 2 h compound, 200 ng/ml hEGF for 5 minutes, read-out: ERK phosphorylation inhibition IC50
# Experimental: Compounds were tested for their ability to inhibit pERK after EGF stimulation in DLD1 cells. Cells were seeded at 0.2 million cells per well in 96 well cell binding tissue culture plate in 100 μL complete media and were allowed to settle overnight (16 to 20 h). On the following day, cells were treated with various concentrations of test compounds for 2 h followed by stimulation with 200 ng/ml hEGF (diluted in PBS) for 5 minutes. Cells were then washed once with PBS and lysed in freshly prepared lysis buffer (provided with alphascreen surefire ERK1/2 p-T202/Y204 assay kit, cat no: TGRESB10K, Perkin Elmer). Lysis was carried out in plate shaker for 10-15 mins. Lysate was transferred to […] white opti-plate (Perkin Elmer) and alphascreen for pERK was carried out as per manufacturer's instructions. Plate was read after 2 h incubation in plate shaker at […] 300 RPM, 25-28° C. The difference between the unstimulated and stimulated Vehicle control is considered as 100% ERK phosphorylation, and % inhibition of compounds is calculated accordingly.
# [2] = target: T1, nucleotide exchange on hKRASG12C mediated by hSOS1 (Homo sapiens, UniProt Q07889); assay: Guanine nucleotide exchange assay (GNEA, HTRF); type: biochemical; details: HIS-hSOS1 564-1049aa mediated GTP loading onto GST-hKRASG12C 1-169aa, read-out: Guanine nucleotide exchange inhibition IC50
# T1 construct: HIS-hSOS1, 564-1049aa mediated GTP loading onto GST-hKRASG12C; His (N); made in house
# T1 sequence (Q07889 564-1049): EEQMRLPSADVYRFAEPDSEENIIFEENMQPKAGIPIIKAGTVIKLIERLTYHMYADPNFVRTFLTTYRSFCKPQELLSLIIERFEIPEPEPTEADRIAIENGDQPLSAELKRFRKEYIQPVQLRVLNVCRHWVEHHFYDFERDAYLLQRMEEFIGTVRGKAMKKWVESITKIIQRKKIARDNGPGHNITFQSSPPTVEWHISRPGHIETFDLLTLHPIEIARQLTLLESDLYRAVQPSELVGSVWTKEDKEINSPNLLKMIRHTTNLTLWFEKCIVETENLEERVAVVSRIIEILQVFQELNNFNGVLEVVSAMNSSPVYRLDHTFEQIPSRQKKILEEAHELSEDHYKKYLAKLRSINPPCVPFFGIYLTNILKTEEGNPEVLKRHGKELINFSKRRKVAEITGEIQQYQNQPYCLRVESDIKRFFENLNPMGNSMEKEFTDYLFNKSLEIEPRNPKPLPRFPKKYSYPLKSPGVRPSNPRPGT
# Experimental: Example-154: Guanine nucleotide exchange assay (GNEA) GNEA assay was conducted to evaluate the effects of compounds on the nucleotide exchange on hKRASG12C mediated by hSOS1. Inhibitory effect of compounds on HIS-hSOS1, 564-1049aa mediated GTP loading onto GST-hKRASG12C, 1-169aa both expressed and purified in-house was assessed using HTRF detection technology in biochemical assay. Compounds were pre-incubated with hSOS1 working solution containing 10-50 nM hSOS1 and 200 nM EDA-GTP-DY-647P1 (Custom manufactured, Jena Biosciences) per well of a 384 well plate (Perkin Elmer, Cat #6007290) for 10 min at 20° C. in the assay buffer containing 10 mM HEPES, pH 7.4, 150 mM NaCl, 5 mM MgCl2, 1 mM DTT, 0.05% BSA fraction V and 0.0025% Igepal. Reaction was initiated by adding working solution of hKRASG12C containing 25-125 nM hKRASG12C and MAb Anti-GST-Tb (#61GSTTLA, Cisbio BioAssays) in assay buffer. Total assay volume was 15 μL. Reaction was continued for 30-60 min at 20° C. HTRF signal was recorded in PHERAStar microplate reader. Ratio of signal obtained at 665 nm and 620 nm was used to compute the percent inhibition of compound as follows.
# [3] = target: T2, protein-protein interaction between hSOS1 and hKRASG12C (Homo sapiens, UniProt Q07889); assay: KRAS-SOS1 interaction assay (HTRF); type: binding; details: GST-hSOS1 564-1049aa, HIS-hKRASG12C, read-out: KRAS-SOS1 Interaction inhibition IC50
# T2 construct: GST-hSOS1, 564-1049aa expressed and purified in-house
# T2 sequence (Q07889 564-1049): T1 sequence (Q07889 564-1049)
# Experimental: Interaction assay was conducted to evaluate the ability of the compounds to disrupt the protein-protein interactions between hSOS1 and hKRASG12C. Inhibitory effect of compounds on GST-hSOS1, 564-1049aa expressed and purified in-house and HIS-hKRASG12C (R06-32DH, SignalChem) interaction was assessed using HTRF detection technology in biochemical assay. Compounds were pre-incubated with 10-50 nM working solution of hSOS1 per well of a 384 well plate (Perkin Elmer, Cat #6007290) for 10 min at 20° C. in the assay buffer containing 5 mM HEPES, pH 7.4, 150 mM NaCl, 10 mM EDTA, 1 mM DTT, 0.05% BSA fraction V and 0.0025% Igepal. Reaction was initiated by adding 100-300 nM working solution of hKRASG12C in assay buffer. Total assay volume was 15 μL. Reaction was continued for 30-60 min at 20° C. Then detection solution containing MAb Anti-GST-d2 (#61GSTDLA, Cisbio BioAssays) and MAb Anti-HIS-Tb (#61HISTLA, Cisbio BioAssays), all prepared in HTRF detection buffer (#61DB10RDF, Cisbio BioAssays) was added and further incubated for 30-60 min at 20° C. HTRF signal was recorded in PHERAStar microplate reader. Ratio of signal obtained at 665 nm and 620 nm was used to compute the percent inhibition of compound utilizing the following formula: […]
Structure (SMILES),IC50 [1] [nM],IC50 [2] [nM],IC50 [3] [nM]
"COC1(C)C(=O)N(C)c2cc3nc(C)nc(N[C@H](C)c4cccc(C(F)(F)C(C)(C)O)c4F)c3cc21 (mixture of isomers) [Compound 96, (R&S)-4-(((R)-1-(3-(1,1-difluoro-2-hydroxy-2-methylpropyl)-2-fluorophenyl)ethyl)amino)-6-methoxy-2,6,8-trimethyl-6,8-dihydro-7H-pyrrolo[3,2-g]quinazolin-7-one]",1 to 200,1 to 30,1 to 10
"Cc1nc(N[C@H](C)c2cccc(C(F)(F)[C@](C)(O)CO)c2F)c2cc3c(cc2n1)OC(C)(C)C(=O)N3C (racemic) [Compound 23b, 4-(((R/S)-1-(3-((R/S)-1,1-difluoro-2,3-dihydroxy-2-methylpropyl)-2-fluorophenyl)ethyl)amino)-2,6,8,8-tetramethyl-6H-[1,4]oxazino[3,2-g]quinazolin-7(8H)-one]",1 to 200,1 to 30,1 to 10
"Cc1nc(N[C@H](C)c2cccc(C(F)(F)C(C)(C)O)c2F)c2cc3c(cc2n1)N(C)[C@@H](C)C(=O)N3C (racemic) [Compound 27a, (S/R)-4-(((R)-1-(3-(1,1-difluoro-2-hydroxy-2-methylpropyl)-2-fluorophenyl)ethyl)amino)-2,6,8,9-tetramethyl-8,9-dihydropyrazino[2,3-g]quinazolin-7(6H)-one]",1 to 200,1 to 30,1 to 10
"Cc1nc(N[C@H](C)c2cccc(C(F)(F)CO)c2F)c2cc3c(cc2n1)O[C@@H](C)CN3C (racemic) [Compound 36a, 2,2-difluoro-2-(2-fluoro-3-((R)-1-(((S/R)-2,6,8-trimethyl-7,8-dihydro-6H-[1,4]oxazino[3,2-g]quinazolin-4-yl)amino)ethyl)phenyl)ethan-1-ol]",1 to 200,1 to 30,1 to 10
"COC[C@](C)(O)C(F)(F)c1cccc([C@@H](C)Nc2nc(C)nc3cc4c(cc23)N(C)C(=O)C(C)(C)O4)c1F (racemic) [Compound 53a, 4—(((R)-1-(3-((S/R)-1,1-difluoro-2-hydroxy-3-methoxy-2-methylpropyl)-2-fluorophenyl)ethyl)amino)-2,6,8,8-tetramethyl-6H-[1,4]oxazino[3,2-g]quinazolin-7(8H)-one]",1 to 200,1 to 30,1 to 10
"Cc1nc(N[C@H](C)c2cccc(C(F)(F)C(C)(C)O)c2F)c2cc3c(cc2n1)N(C)C(=O)C3C (mixture of isomers) [Compound 95, (R&S)-4-(((R)-1-(3-(1,1-difluoro-2-hydroxy-2-methylpropyl)-2-fluorophenyl)ethyl)amino)-2,6,8-trimethyl-6,8-dihydro-7H-pyrrolo[3,2-g]quinazolin-7-one]",1 to 200,31 to 130,11 to 25
"Cc1nc(N[C@H](C)c2cc(N)cc(C(F)(F)F)c2)c2cc3c(cc2n1)OCCN3C [Compound 10, (R)—N-(1-(3-amino-5-(trifluoromethyl)phenyl)ethyl)-2,6-dimethyl-7,8-dihydro-6H-[1,4]oxazino[3,2-g]quinazolin-4-amine]",–,31 to 130,1 to 10
"Cc1nc(N[C@H](C)c2cccc(C(F)(F)CO)c2F)c2cc3c(cc2n1)C(C)(C)C(=O)N3C [Compound 72, (R)-4-((1-(3-(1,1-difluoro-2-hydroxyethyl)-2-fluorophenyl)ethyl)amino)-2,6,8,8-tetramethyl-6,8-dihydro-7H-pyrrolo[2,3-g]quinazolin-7-one]",–,1 to 30,1 to 10
"Cc1nc(N[C@H](C)c2cccc(C(F)(F)C(C)(C)O)c2F)c2cc3c(cc2n1)C(C)(C)C(=O)N3C(C)C [Compound 78, (R)-4-((1-(3-(1,1-difluoro-2-hydroxy-2-methylpropyl)-2-fluorophenyl)ethyl)amino)-6-isopropyl-2,8,8-trimethyl-6H-pyrrolo[2,3-g]quinazolin-7(8H)-one]",1 to 200,–,–
"Cc1nc(N[C@H](C)c2cccc(C(F)(F)C(C)(C)O)c2F)c2cc3c(cc2n1)C1(CC1)C(=O)N3C [Compound 79, (R)-4′-((1-(3-(1,1-difluoro-2-hydroxy-2-methylpropyl)-2-fluorophenyl)ethyl)amino)-2′,6′-dimethylspiro[cyclopropane-1,8′-pyrrolo[2,3-g]quinazolin]-7′(6′H)-one]",1 to 200,–,–
"Cc1nc(N[C@H](C)c2cccc(C(F)(F)C(C)(C)O)c2F)c2cc3c(cc2n1)N(C)C(C)(C)N3C [Compound 108, (R)-1,1-difluoro-1-(2-fluoro-3-(1-((1,2,2,3,6-pentamethyl-2,3-dihydro-1H-imidazo[4,5-g]quinazolin-8-yl)amino)ethyl)phenyl)-2-methylpropan-2-ol]",201 to 500,–,–
"Cc1nc(N[C@H](C)c2cccc(C(F)(F)C(C)(C)O)c2F)c2cc3c(cc2n1)oc(=O)n3C [Compound 111, (R)-8-((1-(3-(1,1-difluoro-2-hydroxy-2-methylpropyl)-2-fluorophenyl)ethyl)amino)-1,6-dimethyloxazolo[4,5-g]quinazolin-2(1H)-one]",201 to 500,–,–
"Cc1nc(N[C@H](C)c2cccc(C(F)(F)C(C)(C)O)c2F)c2cc3c(cc2n1)CC(=O)N3C [Compound 113, (R)-4-((1-(3-(1,1-difluoro-2-hydroxy-2-methylpropyl)-2-fluorophenyl)ethyl)amino)-2,6-dimethyl-6,8-dihydro-7H-pyrrolo[2,3-g]quinazolin-7-one]",–,31 to 130,1 to 10
"Cc1nc(N[C@H](C)c2cccc(C(F)(F)C(C)(C)O)c2F)c2cc3c(cc2n1)C(=O)N(C)C3(C)C [Compound 114, (R)-4-((1-(3-(1,1-difluoro-2-hydroxy-2-methylpropyl)-2-fluorophenyl)ethyl)amino)-2,6,6,7-tetramethyl-6,7-dihydro-8H-pyrrolo[3,4-g]quinazolin-8-one]",1 to 200,–,–
"Cc1nc(N[C@H](C)c2cccc(C(F)(F)C(C)(C)O)c2F)c2cc3c(cc2n1)C(F)(F)C(=O)N3C [Compound 117, (R)-4-((1-(3-(1,1-difluoro-2-hydroxy-2-methylpropyl)-2-fluorophenyl)ethyl)amino)-8,8-difluoro-2,6-dimethyl-6,8-dihydro-7H-pyrrolo[2,3-g]quinazolin-7-one]",201 to 500,–,–
